One test concerns the target BRG-1 (Homo sapiens, UniProt P51532). As to the kind of experiment: ATPase catalytic activity assay of BRG-1 (ADP-Glo). The test is classed as biochemical. To be noted: ATPase catalytic activity, ADP-Glo; for IC50: read-out: BRG1 IC50 (μM)*; for Emax: read-out: BRG1 Max % Inhibition. In a few lines: (§1)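 Two room-temperature incubations follow the reaction: 40 min to eliminate unused ATP, then 60 min to turn ADP into ATP driving luciferase light output. Activity is read as luminescence proportional to ADP formed.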
In general terms: ADP-Glo turns the ADP formed in a reaction into a luminescent signal.

In another test the target is BRM (Homo sapiens, UniProt P51531). As to the kind of experiment: ATPase catalytic activity assay of BRM (ADP-Glo). Type of test: biochemical. To be noted: for IC50: read-out: BRM IC50 (μM)*. In a few lines: as §1

This is an account of results in US12685735B2 (Foghorn Therapeutics Inc., priority 2020, dated 2026).

SMILES strings stand for the structures.

Chain of BRM (P51531 whole entry): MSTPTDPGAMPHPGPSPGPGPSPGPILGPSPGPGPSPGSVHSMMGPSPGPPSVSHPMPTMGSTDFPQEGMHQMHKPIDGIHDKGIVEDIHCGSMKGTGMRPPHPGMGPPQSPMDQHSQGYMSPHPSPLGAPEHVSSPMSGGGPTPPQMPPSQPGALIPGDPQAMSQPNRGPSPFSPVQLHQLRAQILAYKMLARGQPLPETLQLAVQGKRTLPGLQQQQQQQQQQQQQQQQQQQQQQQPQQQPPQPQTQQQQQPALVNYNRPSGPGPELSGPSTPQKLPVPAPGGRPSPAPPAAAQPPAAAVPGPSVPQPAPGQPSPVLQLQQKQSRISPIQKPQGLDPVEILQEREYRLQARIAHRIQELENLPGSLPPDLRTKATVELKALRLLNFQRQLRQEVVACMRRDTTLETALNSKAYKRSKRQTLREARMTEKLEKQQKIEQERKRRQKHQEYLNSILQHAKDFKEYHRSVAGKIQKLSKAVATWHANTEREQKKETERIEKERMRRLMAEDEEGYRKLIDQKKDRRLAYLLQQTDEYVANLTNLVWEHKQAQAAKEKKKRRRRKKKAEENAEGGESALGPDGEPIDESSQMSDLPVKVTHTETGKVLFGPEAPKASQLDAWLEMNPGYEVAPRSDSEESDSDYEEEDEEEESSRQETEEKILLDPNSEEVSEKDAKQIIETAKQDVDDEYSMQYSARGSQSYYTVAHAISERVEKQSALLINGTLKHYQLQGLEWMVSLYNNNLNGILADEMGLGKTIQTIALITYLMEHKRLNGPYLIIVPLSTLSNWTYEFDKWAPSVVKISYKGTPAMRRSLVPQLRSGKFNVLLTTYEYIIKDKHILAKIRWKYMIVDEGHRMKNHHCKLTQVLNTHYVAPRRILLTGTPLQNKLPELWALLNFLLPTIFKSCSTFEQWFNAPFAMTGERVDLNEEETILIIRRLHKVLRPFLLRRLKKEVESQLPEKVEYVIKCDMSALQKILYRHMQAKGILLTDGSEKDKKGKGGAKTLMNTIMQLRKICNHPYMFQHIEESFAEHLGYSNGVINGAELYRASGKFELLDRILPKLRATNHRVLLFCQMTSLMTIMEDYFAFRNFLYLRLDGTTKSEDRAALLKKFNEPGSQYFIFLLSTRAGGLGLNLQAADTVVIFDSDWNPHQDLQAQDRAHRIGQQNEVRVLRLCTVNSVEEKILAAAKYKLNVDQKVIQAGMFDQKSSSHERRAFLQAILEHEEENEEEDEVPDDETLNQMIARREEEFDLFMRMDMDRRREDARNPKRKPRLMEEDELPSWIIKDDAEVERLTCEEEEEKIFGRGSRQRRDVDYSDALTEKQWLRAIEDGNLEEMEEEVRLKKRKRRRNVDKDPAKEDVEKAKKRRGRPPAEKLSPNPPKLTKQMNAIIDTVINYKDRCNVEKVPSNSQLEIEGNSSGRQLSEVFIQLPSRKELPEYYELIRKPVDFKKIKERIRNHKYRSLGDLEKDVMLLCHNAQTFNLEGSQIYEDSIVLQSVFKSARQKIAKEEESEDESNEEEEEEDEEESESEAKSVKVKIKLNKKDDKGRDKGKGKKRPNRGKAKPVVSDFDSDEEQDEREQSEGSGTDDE
Chain of BRG-1 (P51532 whole entry): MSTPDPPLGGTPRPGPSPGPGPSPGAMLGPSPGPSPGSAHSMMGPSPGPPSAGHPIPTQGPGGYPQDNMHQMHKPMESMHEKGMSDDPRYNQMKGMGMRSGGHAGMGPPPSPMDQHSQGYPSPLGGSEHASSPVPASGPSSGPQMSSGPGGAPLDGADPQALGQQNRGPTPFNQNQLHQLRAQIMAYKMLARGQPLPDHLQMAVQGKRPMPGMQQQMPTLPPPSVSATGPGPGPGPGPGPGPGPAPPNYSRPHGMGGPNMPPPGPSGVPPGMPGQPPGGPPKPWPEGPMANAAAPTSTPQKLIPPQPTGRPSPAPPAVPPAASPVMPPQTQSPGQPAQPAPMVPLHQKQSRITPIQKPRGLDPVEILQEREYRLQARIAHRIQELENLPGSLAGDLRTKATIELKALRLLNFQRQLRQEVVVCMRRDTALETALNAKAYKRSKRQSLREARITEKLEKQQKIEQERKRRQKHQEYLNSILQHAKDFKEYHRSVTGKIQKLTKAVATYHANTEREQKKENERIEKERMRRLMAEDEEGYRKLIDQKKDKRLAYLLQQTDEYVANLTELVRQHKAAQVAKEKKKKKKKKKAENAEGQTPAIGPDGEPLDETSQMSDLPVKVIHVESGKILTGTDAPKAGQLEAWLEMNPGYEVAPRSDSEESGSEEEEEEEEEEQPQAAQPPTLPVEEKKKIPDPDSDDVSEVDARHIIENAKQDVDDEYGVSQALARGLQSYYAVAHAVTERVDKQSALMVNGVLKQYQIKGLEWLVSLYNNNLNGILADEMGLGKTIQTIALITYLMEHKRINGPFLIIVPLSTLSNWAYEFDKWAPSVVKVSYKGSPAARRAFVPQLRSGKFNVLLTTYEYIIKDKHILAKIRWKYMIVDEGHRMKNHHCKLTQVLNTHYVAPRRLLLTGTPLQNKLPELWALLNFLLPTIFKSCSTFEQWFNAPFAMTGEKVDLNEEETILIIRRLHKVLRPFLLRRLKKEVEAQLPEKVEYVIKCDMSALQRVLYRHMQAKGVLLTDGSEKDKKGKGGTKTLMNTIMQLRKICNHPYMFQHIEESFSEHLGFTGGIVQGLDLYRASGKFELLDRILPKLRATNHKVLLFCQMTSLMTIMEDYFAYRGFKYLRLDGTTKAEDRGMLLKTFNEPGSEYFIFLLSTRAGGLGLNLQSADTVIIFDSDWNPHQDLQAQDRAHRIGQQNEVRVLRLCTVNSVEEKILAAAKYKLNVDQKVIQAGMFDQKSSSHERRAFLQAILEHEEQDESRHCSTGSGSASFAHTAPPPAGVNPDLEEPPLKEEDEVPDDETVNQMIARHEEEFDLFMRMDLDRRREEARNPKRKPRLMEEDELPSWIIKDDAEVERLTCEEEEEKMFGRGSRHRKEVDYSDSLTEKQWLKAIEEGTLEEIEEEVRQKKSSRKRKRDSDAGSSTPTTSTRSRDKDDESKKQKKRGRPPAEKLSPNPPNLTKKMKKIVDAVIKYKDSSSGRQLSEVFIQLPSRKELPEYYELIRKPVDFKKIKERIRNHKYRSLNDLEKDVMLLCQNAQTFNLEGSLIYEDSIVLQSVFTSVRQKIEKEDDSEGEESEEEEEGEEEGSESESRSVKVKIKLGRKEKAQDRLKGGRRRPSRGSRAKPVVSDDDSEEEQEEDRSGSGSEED

As for `C[C@]1(CO)CCc2ccc(C(=O)NCC(=O)Nc3nc(-c4cccc(-c5cccnc5O)n4)cs3)cc21` [Compound 191, (S)-N-(2-((4-(2′-hydroxy-[2,3′-bipyridin]-6-yl)thiazol-2-yl)amino)-2-oxoethyl)-3-(hydroxymethyl)-3-methyl-2,3-dihydro-1H-indene-5-carboxamide], at BRG-1, the concentration for half-maximal inhibition (IC50) (commonly the concentration at which inhibition is half-maximal) was 0.1 to 1 µM and the Emax was above 80%. At BRM, the “BRM Max % Inhibition” value was above 90% and the IC50 lay within 0.1 to 1 µM.
With `Cn1ccc(-c2cccc(-c3csc(NC(=O)CNC(=O)c4ccc5c(c4)[C@@](C)(CO)CC5)n3)n2)n1` [Compound 192, (3S)-3-(hydroxymethyl)-3-methyl-N-[2-[[4-[6-(1-methylpyrazol-3-yl)-2-pyridyl]thiazol-2-yl]amino]-2-oxo-ethyl]indane-5-carboxamide], on BRG-1, the IC50 lay within 1 to 5 µM and the Emax is above 60%. Besides, at BRM, the “BRM Max % Inhibition” value is above 90% and the IC50 fell in the range of 0.1 to 1 µM.
The matching figures for `C[C@@H]1CN(c2cccc(-c3csc(NC(=O)CNC(=O)c4ccc5c(c4)C4(CCCC4=O)CC5)n3)c2)C[C@H](C)O1` (stereo partly drawn) [Compound 195, N-(2-((4-(3-((cis)-2,6-dimethylmorpholino)phenyl)thiazol-2-yl)amino)-2-oxoethyl)-2-oxo-2′,3′-dihydrospiro[cyclopentane-1,1′-indene]-6′-carboxamide]: 1 to 5 µM, above 70%, above 95% and 0.1 to 1 µM.
The matching figures for `CC(C)(C)c1cccc(C(=O)NCC(=O)Nc2nc(-c3cccc(N4CCC4)c3)cs2)c1` [Compound 196, N-(2-((4-(3-(azetidin-1-yl)phenyl)thiazol-2-yl)amino)-2-oxoethyl)-3-(tert-butyl)benzamide]: 1 to 5 µM, above 60%, above 90% and 0.1 to 1 µM.
Turning to `C[C@@]1(CO)CCc2c(C(=O)NCC(=O)Nc3nc(-c4cccc(-c5ccncc5)c4)cs3)cccc21` [Compound 197], the half-maximal inhibitory concentration (IC50) is above 5 µM on BRG-1 and 1 to 5 µM at BRM. Moreover, the Emax at BRG-1 is below 30%.
Consider `C[C@@H]1CN(c2cc(F)cc(-c3csc(NC(=O)CNC(=O)c4ccc(F)c(C(C)(C)CO)c4)n3)c2)C[C@H](C)O1` [Compound 198, N-(2-((4-(3-((cis)-2,6-dimethylmorpholino)-5-fluorophenyl)thiazol-2-yl)amino)-2-oxoethyl)-4-fluoro-3-(1-hydroxy-2-methylpropan-2-yl)benzamide], for which, on BRG-1, the IC50 was 0.1 to 1 µM and the Emax is above 95%. At BRM, the “BRM Max % Inhibition” value is above 95% and the IC50 is below 0.1 µM.
The matching figures for `C[C@@H]1CN(c2cc(F)cc(-c3csc(NC(=O)CNC(=O)c4ccc(Cl)c(C(C)(C)CO)c4)n3)c2)C[C@H](C)O1` [Compound 199, 4-chloro-N-[2-[[4-[3-[(cis)-2,6-dimethylmorpholin-4-yl]-5-fluoro-phenyl]thiazol-2-yl]amino]-2-oxo-ethyl]-3-(2-hydroxy-1,1-dimethyl-ethyl)benzamide]: below 0.1 µM, above 95%, above 95% and below 0.1 µM.
The matching figures for `C[C@@H]1CN(c2cccc(-c3csc(NC(=O)CNC(=O)c4ccc(F)c(C(C)(C)CO)c4)n3)c2)C[C@H](C)O1` [Compound 200, N-(2-((4-(3-((cis)-2,6-dimethylmorpholino)phenyl)thiazol-2-yl)amino)-2-oxoethyl)-4-fluoro-3-(1-hydroxy-2-methylpropan-2-yl)benzamide]: 0.1 to 1 µM, above 80%, above 95% and below 0.1 µM.
The matching figures for `Cc1cc(-c2cccc(-c3csc(NC(=O)CNC(=O)c4ccc(C)c(C(C)(C)CN)c4)n3)n2)ncn1` [Compound 201, 3-(2-amino-1,1-dimethyl-ethyl)-4-methyl-N-[2-[[4-[6-(6-methylpyrimidin-4-yl)-2-pyridyl]thiazol-2-yl]amino]-2-oxo-ethyl]benzamide]: 0.1 to 1 µM, above 90%, above 95% and below 0.1 µM.
For the molecule `C[C@@H]1CN(c2cccc(-c3csc(NC(=O)CNC(=O)c4cc(C(C)(C)C)ccn4)n3)c2)C[C@H](C)O1` [Compound 202, 4-tert-butyl-N-[2-[[4-[3-[(cis)-2,6-dimethylmorpholin-4-yl]phenyl]thiazol-2-yl]amino]-2-oxo-ethyl]pyridine-2-carboxamide], at BRG-1, the IC50 lay within 1 to 5 µM and the Emax is above 80%. Moreover, on BRM, the “BRM Max % Inhibition” value is on record as above 90% and the IC50 was in the range of 0.1 to 1 µM.
The matching figures for `Cc1cc(-c2cccc(-c3csc(NC(=O)CNC(=O)c4ccc5c(c4)[C@](C)(CO)CC5)n3)n2)ncn1` [Compound 203, (3R)-3-(hydroxymethyl)-3-methyl-N-[2-[[4-[6-(6-methylpyrimidin-4-yl)-2-pyridyl]thiazol-2-yl]amino]-2-oxo-ethyl]indane-5-carboxamide]: 0.1 to 1 µM, above 95%, above 95% and below 0.1 µM.
The matching figures for `Cc1cc(-c2cccc(-c3csc(NC(=O)CNC(=O)c4ccc5c(c4)[C@@](C)(CO)CC5)n3)n2)ncn1` [Compound 204, (3S)-3-(hydroxymethyl)-3-methyl-N-[2-[[4-[6-(6-methylpyrimidin-4-yl)-2-pyridyl]thiazol-2-yl]amino]-2-oxo-ethyl]indane-5-carboxamide]: 0.1 to 1 µM, above 90%, above 95% and below 0.1 µM.
The matching figures for `C[C@@H]1CN(c2cccc(-c3csc(NC(=O)CNC(=O)c4ccnc(C(C)(C)C)c4)n3)c2)C[C@H](C)O1` [Compound 205, 2-(tert-butyl)-N-(2-((4-(3-((cis)-2,6-dimethylmorpholino)phenyl)thiazol-2-yl)amino)-2-oxoethyl)isonicotinamide]: 1 to 5 µM, above 70%, above 95% and 0.1 to 1 µM.
Take `Cc1nccc(-c2cccc(-c3csc(NC(=O)CNC(=O)c4ccc(C)c(C(C)(C)CN)c4)n3)n2)n1` [Compound 206, 3-(2-amino-1,1-dimethyl-ethyl)-4-methyl-N-[2-[[4-[6-(2-methylpyrimidin-4-yl)-2-pyridyl]thiazol-2-yl]amino]-2-oxo-ethyl]benzamide]: on BRG-1, the IC50 was in the range of 1 to 5 µM and the Emax is above 70%. For the same molecule, at BRM, the “BRM Max % Inhibition” value is above 95% and the IC50 fell in the range of 0.1 to 1 µM.
Regarding `Cc1cc(-c2cccc(-c3csc(NC(=O)CNC(=O)c4ccc5c(c4)[C@@](C)(CO)CCC5)n3)n2)ncn1` [Compound 207, (S)-8-(hydroxymethyl)-8-methyl-N-(2-((4-(6-(6-methylpyrimidin-4-yl)pyridin-2-yl)thiazol-2-yl)amino)-2-oxoethyl)-5,6,7,8-tetrahydronaphthalene-2-carboxamide], on BRG-1, the IC50 was above 5 µM and the Emax was above 50%. Moreover, on BRM, the “BRM Max % Inhibition” value is above 90% and the IC50 is 0.1 to 1 µM.
